Laboratory results from paper PMC3235172, “Distinct Expression Profiles and Different Functions of Odorant Binding Proteins in Nilaparvata lugens Stål” (PLoS ONE, 2011).
Like-named read-outs stand apart in the source and are kept apart here.

Tests used:
NlugOBP1 = NlugOBP1 (Nilaparvata lugens, UniProt B6E9U1); assay: Competitive fluorescence binding assay (1-NPN probe) with recombinant NlugOBP1
Method: (§1) The excitation wavelength was 337 nm and the emission spectrum was recorded between 370 and 460 nm by a fluorescence spectrometer (Hitachi F-7000 Fluorescence Spectrophotometer, Japan) with a 1 cm light path quartz cuvette and 10 nm slits for both excitation and emission.

NlugOBP2 [1] = assay: Competitive fluorescence binding assay (1-NPN probe) with recombinant NlugOBP2; set-up: species or system Nilaparvata lugens; conditions: protein and 1-NPN at 2 µM
Method: as §1

NlugOBP3 = NlugOBP3 (Nilaparvata lugens, UniProt B6E9U3); assay: Competitive fluorescence binding assay (1-NPN probe) with recombinant NlugOBP3
Sequence of NlugOBP3 (B6E9U3 entry or part of it): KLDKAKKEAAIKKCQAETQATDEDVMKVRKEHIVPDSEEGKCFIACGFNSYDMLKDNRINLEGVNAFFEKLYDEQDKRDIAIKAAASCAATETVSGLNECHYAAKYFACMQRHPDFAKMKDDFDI
Method: as §1

NlugOBP2 [2] = molecular target: NlugOBP2 (Nilaparvata lugens, UniProt B6E9U2); assay: Competitive fluorescence binding assay (1-NPN probe) with recombinant NlugOBP2
Sequence of NlugOBP2 (Nilaparvata lugens, UniProt B6E9U2) (B6E9U2 entry or part of it): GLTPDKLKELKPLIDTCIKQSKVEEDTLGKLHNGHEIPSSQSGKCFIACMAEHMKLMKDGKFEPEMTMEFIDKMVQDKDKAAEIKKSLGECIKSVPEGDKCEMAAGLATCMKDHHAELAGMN
Method: as §1

[3] = calculated from IC50, protein and 1-NPN at 2 µM, pH 7.4, read-out: OBP1 Ki
[4] = displacement of 1-NPN, protein and 1-NPN at 2 µM, 50 mM Tris-HCl pH 7.4, read-out: OBP1 IC50
[5] = calculated from IC50, protein and 1-NPN at 2 µM, pH 7.4, read-out: OBP2 Ki
[6] = displacement of 1-NPN, protein and 1-NPN at 2 µM, 50 mM Tris-HCl pH 7.4, read-out: OBP2 IC50
[7] = calculated from IC50, protein and 1-NPN at 2 µM, pH 7.4, read-out: OBP3 Ki
[8] = displacement of 1-NPN, protein and 1-NPN at 2 µM, 50 mM Tris-HCl pH 7.4, read-out: OBP3 IC50

Sequence of NlugOBP1 (B6E9U1 entry or part of it): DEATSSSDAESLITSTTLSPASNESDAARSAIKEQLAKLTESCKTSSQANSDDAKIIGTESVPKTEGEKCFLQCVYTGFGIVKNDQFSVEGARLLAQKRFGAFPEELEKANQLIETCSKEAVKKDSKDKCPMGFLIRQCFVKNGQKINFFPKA

binding ability with NlugOBP1 (in words) (NlugOBP1)	Ki (NlugOBP1; [3]) [µM]	IC50 (NlugOBP1; [4]) [µM]	binding ability with NlugOBP2 (in words) (NlugOBP2 [2])	Ki (NlugOBP2 [2]; [5]) [µM]	IC50 (NlugOBP2 [2]; [6]) [µM]	binding ability with NlugOBP3 (in words) (NlugOBP3)	Ki (NlugOBP3; [7]) [µM]	IC50 (NlugOBP3; [8]) [µM]	Ki (NlugOBP3; read-out: Ki with NlugOBP3) [µM]	Compound	IC50 (NlugOBP1) [µM]	Ki (NlugOBP1) [µM]	Ki (NlugOBP2 [1]; calculated from IC50, pH 7.4, read-out: OBP2 Ki) [µM]	IC50 (NlugOBP2 [1]; displacement of 1-NPN, 50 mM Tris-HCl pH 7.4, read-out: OBP2 IC50) [µM]	IC50 (NlugOBP3) [µM]	Ki (NlugOBP3) [µM]	IC50 (NlugOBP2 [2]) [µM]	Ki (NlugOBP2 [2]) [µM]
										C[C@@H]1CC[C@H]2C(C)(C)[C@H]3C[C@@]12CC[C@@]3(C)O [Ligand 9, Cedrol]	30	25.6	30.1	35	19.7	14.1		
relatively high binding abilities	25.3	29.7	relatively high binding abilities	17	19.8	relatively high binding abilities	9.6	13.5		CCCCCCCCCCCCCC(C)=O [Ligand 16, 2-Pentadecanone]								
relatively high binding abilities	29.3	34.3	relatively high binding abilities	27.8	32.3	relatively high binding abilities	23.1	32.4		CC(=O)c1ccccc1 [Ligand 17, Acetophenone]								
	> 50	> 50		> 50	> 50		> 50	> 50		CCCCCOC(C)=O [Ligand 18, Amyl acetate]								
some affinities	30.5	35.7		> 50	> 50	none	> 50	> 50		CC(=O)OCCC(C)C [Ligand 19, Isoamyl acetate]								
	> 50	> 50		25.2	29.3		22.4	31.3		CCC/C=C/COC(C)=O [Ligand 20, (E)-2-Hexenyl acetate]								
	37.9	44.4		> 50	> 50		22	30.8		CCCCCCOC(C)=O [Ligand 21, Hexyl acetate]								
	> 50	> 50		32.5	37.8		27.1	38		CC/C=C\CCOC(C)=O [Ligand 22, (Z)-3-Hexenyl acetate]								
										CCOC(=O)c1ccccc1 [Ligand 23, Ethyl benzoate]	> 50	> 50			39	27.9	> 50	> 50
										COC(=O)c1ccccc1 [Ligand 24, Methyl benzoate]	> 50	> 50			> 50	> 50	> 50	> 50
										COC(=O)c1ccccc1O [Ligand 25, Methyl salicylate]	> 50	> 50			44.8	32	37.4	32.2
										CCCCCCCCCCCC(=O)O [Ligand 26, Dodecanoic acid]	12.1	10.3			13.9	9.9	> 50	> 50
	22.1	25.9		> 50	> 50		7.2	10.1		CCCCCCCCCCCCCCCC(=O)O [Ligand 27, Palmitic acid]								
	> 50	> 50		> 50	> 50		> 50	> 50		CCCCCCCCCCCCCCCCCCCC [Ligand 28, Eicosane]								
	> 50	> 50		> 50	> 50		> 50	> 50		CCCCCCCCCCCCC [Ligand 29, Tridecane]								
	> 50	> 50		> 50	> 50		> 50	> 50		CCCCCCCCCCCCCCCCC [Ligand 30, Heptadecane]								
	> 50	> 50		> 50	> 50		> 50	> 50		CCCCCCCCCCCCCCCCCC [Ligand 31, Octadecane]								
	> 50	> 50		> 50	> 50		> 50	> 50		CCCCCCCCCCCCCC [Ligand 32, Tetradecane]								
	16.2	19		29.1	33.9			10.1	7.2	C=CC(=C)CCC=C(C)C [Ligand 33, Myrcene]								
										CC1=CC[C@@H]2C[C@H]1C2(C)C [Ligand 34, (+)-α-Pinene]	36.4	31.1			16.1	11.5	> 50	> 50
relatively high binding abilities			relatively high binding abilities			relatively high binding abilities				CC(=O)/C=C/C1=C(C)CCCC1(C)C [Ligand 37, β- Ionone]	25.2	21.5			8.5	6.1	25.8	22.2
										CC(C)c1ccccc1 [Ligand 38, Cumene]	> 50	> 50			37.2	26.6	39.2	33.7
	> 50	> 50		> 50	> 50		> 50	> 50		CC12CCC(CC1)C(C)(C)O2 [Ligand 40, Cineole]								
	19	22.3		> 50	> 50		9.5	13.3		CC(C)(C)c1cccc(C(C)(C)C)c1O [Ligand 41, 2,6-Di-tert-butylphenol]								

Compound	binding ability with NlugOBP1 (in words) (NlugOBP1)	Ki (NlugOBP1; [3]) [µM]	IC50 (NlugOBP1; [4]) [µM]	binding ability with NlugOBP2 (in words) (NlugOBP2 [2])	Ki (NlugOBP2 [2]; [5]) [µM]	IC50 (NlugOBP2 [2]; [6]) [µM]	binding ability with NlugOBP3 (in words) (NlugOBP3)	Ki (NlugOBP3; [7]) [µM]	IC50 (NlugOBP3; [8]) [µM]	Ki (NlugOBP3; read-out: Ki with NlugOBP3) [µM]	IC50 (NlugOBP1) [µM]	Ki (NlugOBP1) [µM]	Ki (NlugOBP2 [1]; calculated from IC50, pH 7.4, read-out: OBP2 Ki) [µM]	IC50 (NlugOBP2 [1]; displacement of 1-NPN, 50 mM Tris-HCl pH 7.4, read-out: OBP2 IC50) [µM]	IC50 (NlugOBP3) [µM]	Ki (NlugOBP3) [µM]	IC50 (NlugOBP2 [2]) [µM]	Ki (NlugOBP2 [2]) [µM]
C=C(C)[C@H]1CC=C(C)CC1 [Ligand 35, (R)-(+)-Limonene]		27.6	32.4		> 50	> 50	considerable affinities	23.6	33.1									
C=C1CC/C=C(\C)CC[C@@H]2[C@@H]1CC2(C)C [Ligand 36, β-Caryophyllene]							considerable affinities				> 50	> 50			37.4	26.7	30.1	25.9
